Assay results reported in publication PMC10745497, “The Discovery of Indole-2-carboxylic Acid Derivatives as Novel HIV-1 Integrase Strand Transfer Inhibitors” (Molecules, 2023).
Where two headings read alike, the source gives them in different places.

Legend:
HIV-1 integrase = target: T1, HIV-1 integrase (Human immunodeficiency virus type 1 group M subtype B, UniProt P04585); test: Strand transfer inhibition assay (HIV-1 integrase assay kit); assay type: biochemical; details: for IC50: average of three independent experiments; for Improvement of integrase inhibitory activity over the parent compound 3: ratio of IC50s versus compound 3
T1 construct: purchased Abnova
Description: The strand transfer assay was performed using an HIV-1 integrase assay kit (Abnova, Taipei, CN) according to the manufacturer’s instructions. Each sample was dissolved in DMSO and diluted to a final desired concentration (80, 40, 20, 10, 5 μM) with reaction buffer. Briefly, 100 μL of DS DNA solution was added to each well and incubated for 30 min at 37 °C, and the liquid was removed from the wells and washed 3 times with wash buffer. Then, 200 μL of blocking buffer was added to each well and incubated for 30 min in a 37 °C incubator. Followed by the aspiration of the liquid, each well was washed 3 times with reaction buffer, and 100 μL integrase enzyme solution was added to each well and incubated under similar conditions. Sequentially, 50 μL reaction buffer containing different concentrations of samples was added to each well and incubated for 5 min at room temperature. To each well was added 50 μL of TS DNA solution, and the reactions were mixed gently and incubated for 30 min at 37 °C. Then, each well was washed 3 times with wash solution, incubated with 100 μL HRP antibody and incubated for 30 min at 37 °C. After washing the plate under the same conditions, 100 μL TMB peroxidase substrate solution was added to each well and incubated at room temperature for 10 min. To terminate the reaction, 100 μL TMB stop solution was directly added to each well and the absorbance of the sample was determined using a plate reader (ELx800UV, Bio-Tek Instrument Inc., Winooski, VT, USA) at 450 nm.

[1] = Cytotoxicity assay (MTT) on MT-4 cells; assay type: cell-based, human; details: human, five days, read-out: CC50, concentration that inhibits the proliferation of MT-4 cells by 50%
Description: (§1) The cytotoxicity of the title compounds was tested through MTT analysis on MT-4 cells. Cells were seeded in 96-well plates with a density of 50,000 cells/well and coincubated with serial diluted compounds (2.5, 5, 10, 20, 40, and 80 μM) at 37 °C for five days. MTT (Sigma) was then added to each well to a final concentration of 0.5 mg/mL and incubated for 2 h. Subsequently, the medium was decanted, and 150 μL of DMSO was added to each well. The absorbance was obtained using a microplate reader at 570 nm, and all measurements were conducted three times under the same condition. Finally, 50% cytotoxicity concentration (CC50) values were calculated by Graphpad Prism 8.

MT-4 cells = test: Cytotoxicity assay (MTT) on MT-4 cells; assay type: cell-based, human; details: five days, read-out: CC50, concentration that inhibits the proliferation of MT-4 cells by 50%
Description: as §1

[2] = read-out: IC50, concentration required to inhibit the in vitro strand-transfer step of integrase by 50%
[3] = IC50, concentration required to inhibit the in vitro strand-transfer step of integrase by 50%

SMILES	melting point [°C]	IC50 (HIV-1 integrase; [2]) [µM]	IC50 (HIV-1 integrase; [3]) [µM]	CC50 at 5 days [1] [µM]	Improvement of integrase inhibitory activity over the parent compound 3 (HIV-1 integrase) [fold]	CC50 (MT-4 cells) [µM]
Cc1ccc(CNC(=O)CCS(=O)(=O)c2ccc3c(c2)CCN3C(=O)C2CC2)cc1 [Compound 1]	173.4 to 175.3	39.1 ± 1.21	–	–	–	–
COc1ccc([C@H]2CC(=O)Nc3c(S(=O)(=O)c4ccccc4)csc32)cc1OC1CCCC1 [Compound 2]	113 to 116.7	33 ± 1.29	–	–	–	–
COc1ccc2[nH]c(C(=O)O)c(CC(=O)O)c2c1 [Compound 3]	159.7 to 163.2	12.41 ± 0.07	–	–	–	–
COc1cc(OC)c([C@H]2c3c(oc4ccc(Cl)cc4c3=O)C(=O)N2c2cc(C)on2)cc1OC [Compound 4]	271.4 to 279	18.5 ± 1.06	–	–	–	–
Clc1ccc2c(c1)C(c1ccccc1Cl)=NCc1nnc(CSCc3ccccc3)n1-2 [Compound 5]	164.7 to 167.8	–	47.4 ± 1.45	–	–	–
O=C(NC1CCCC1)c1ccc2c(=O)n(Cc3ccco3)c(=O)n(Cc3cccc([N+](=O)[O-])c3)c2c1 [Compound 6]	235.3 to 241.2	22.6 ± 0.58	–	–	–	–
O=C(/C=C/c1ccc2c(c1)OCO2)C[C@@]1(O)C(=O)N(Cc2ccc(Cl)cc2)c2ccccc21 [Compound 7]	147 to 148.2	21.4 ± 0.26	–	–	–	–
O=C(NCc1ccc(F)cc1)c1coc(CN(Cc2ccc3c(c2)OCO3)Cc2ccc3c(c2)OCO3)n1 [Compound 8]	171.5 to 176.8	28.2 ± 1.07	–	–	–	–
O=c1c2cc(N3CCOCC3)ccc2nc(SCc2cc(=O)n3cc(Cl)ccc3n2)n1Cc1ccc2c(c1)OCO2 [Compound 9]	239 to 240.1	32.8 ± 0.83	–	–	–	–
Cc1c2c(=O)n(-c3nc4ccccc4s3)n(Cc3ccccc3)c2cc(=O)n1Cc1ccc2c(c1)OCO2 [Compound 10]	139.9 to 143.6	22.3 ± 0.43	–	–	–	–
CC(C)OC(=O)c1[nH]c2cc(Br)ccc2c1COCc1ccc(C(F)(F)F)cc1 [Compound 15, Isopropyl 6-bromo-3-(((4-(trifluoromethyl)benzyl)oxy)methyl)-1H-indole-2-carboxylate]	–	–	2.34 ± 0.31	> 80	5.3	–
COc1ccc(Nc2ccc3c(COCc4ccc(C(F)(F)F)cc4)c(C(=O)OC(C)C)[nH]c3c2)cc1F [Compound 16a, Isopropyl 6-((3-fluoro-4-methoxyphenyl)amino)-3-(((4-(trifluoromethyl)benzyl)oxy)methyl)-1H-indole-2-carboxylate]	142.3 to 145.6	3.47 ± 0.82	–	> 80	–	–
CC(C)OC(=O)c1[nH]c2cc(Nc3ccc(F)cc3F)ccc2c1COCc1ccc(C(F)(F)F)cc1 [Compound 16b, Isopropyl 6-((2,4-difluorophenyl)amino)-3-(((4-(trifluoromethyl)benzyl)oxy)methyl)-1H-indole-2-carboxylate]	149.7 to 152.5	1.06 ± 0.25	–	> 80	–	–
COc1ccc(Nc2ccc3c(COCc4ccc(C(F)(F)F)cc4)c(C(=O)O)[nH]c3c2)cc1F [Compound 17a, 6-((3-fluoro-4-methoxyphenyl)amino)-3-(((4-(trifluoromethyl)benzyl)oxy)methyl) -1H-indole-2-carboxylic acid]	134.8 to 136.3	0.93 ± 0.07	–	> 80	–	–
O=C(O)c1[nH]c2cc(Nc3ccc(F)cc3F)ccc2c1COCc1ccc(C(F)(F)F)cc1 [Compound 17b, 6-((2,4-difluorophenyl)amino)-3-(((4-(trifluoromethyl)benzyl)oxy)methyl)-1H-indole-2-carboxylic acid]	157.3 to 160.5	0.39 ± 0.09	–	> 80	–	–
CC(C)OC(=O)c1[nH]c2cc(Br)ccc2c1COCc1ccccc1F [Compound 18, Isopropyl 6-bromo-3-(((2-fluorobenzyl)oxy)methyl)-1H-indole-2-carboxylate]	154.6 to 158.9	–	1.92 ± 0.07	> 29	6.5	45.3 ± 2.73
COc1ccc(Nc2ccc3c(COCc4ccccc4F)c(C(=O)OC(C)C)[nH]c3c2)cc1F [Compound 19a, Isopropyl 6-((3-fluoro-4-methoxyphenyl)amino)-3-(((2-fluorobenzyl)oxy)methyl)-1H-indole-2-carboxylate]	141.2 to 144.5	1.05 ± 0.32	–	> 29	–	37.6 ± 3.64
CC(C)OC(=O)c1[nH]c2cc(Nc3ccc(F)cc3F)ccc2c1COCc1ccccc1F [Compound 19b, Isopropyl 6-((2,4-difluorophenyl)amino)-3-(((2-fluorobenzyl)oxy)methyl)-1H-indole-2-carboxylate]	171.8 to 175.3	1.7 ± 0.15	–	> 29	–	29.4 ± 1.76
COc1ccc(Nc2ccc3c(COCc4ccccc4F)c(C(=O)O)[nH]c3c2)cc1F [Compound 20a, 6-((3-fluoro-4-methoxyphenyl)amino)-3-(((2-fluorobenzyl)oxy)methyl)-1H-indole-2-carboxylic acid]	169.9 to 173.7	0.13 ± 0.02	–	> 80	–	–
O=C(O)c1[nH]c2cc(Nc3ccc(F)cc3F)ccc2c1COCc1ccccc1F [Compound 20b, 6-((2,4-difluorophenyl)amino)-3-(((2-fluorobenzyl)oxy)methyl)-1H-indole-2-carboxylic acid]	178.5 to 181.8	0.64 ± 0.06	–	> 80	–	–
O=C(O)c1[nH]c2cc(Br)ccc2c1COCc1ccccc1F [Compound 21, 6-bromo-3-(((2-fluorobenzyl)oxy)methyl)-1H-indole-2-carboxylic acid]	174.3 to 178	6.85 ± 0.66	–	> 80	–	–
Cc1nnc(C(=O)NC(C)(C)c2nc(C(=O)NCc3ccc(F)cc3)c(O)c(=O)n2C)o1 [RAL, raltegravir, reference compound]	–	–	–	> 80	–	–
